Assay results from article PMC11053447, “Human ABC and SLC Transporters: The Culprit Responsible for Unspecific PSMA-617 Uptake?” (Pharmaceuticals, 2024).

Biological target: T1, human MATE1 (Homo sapiens, UniProt Q96FL8)
T1 sequence (Q96FL8 1-570): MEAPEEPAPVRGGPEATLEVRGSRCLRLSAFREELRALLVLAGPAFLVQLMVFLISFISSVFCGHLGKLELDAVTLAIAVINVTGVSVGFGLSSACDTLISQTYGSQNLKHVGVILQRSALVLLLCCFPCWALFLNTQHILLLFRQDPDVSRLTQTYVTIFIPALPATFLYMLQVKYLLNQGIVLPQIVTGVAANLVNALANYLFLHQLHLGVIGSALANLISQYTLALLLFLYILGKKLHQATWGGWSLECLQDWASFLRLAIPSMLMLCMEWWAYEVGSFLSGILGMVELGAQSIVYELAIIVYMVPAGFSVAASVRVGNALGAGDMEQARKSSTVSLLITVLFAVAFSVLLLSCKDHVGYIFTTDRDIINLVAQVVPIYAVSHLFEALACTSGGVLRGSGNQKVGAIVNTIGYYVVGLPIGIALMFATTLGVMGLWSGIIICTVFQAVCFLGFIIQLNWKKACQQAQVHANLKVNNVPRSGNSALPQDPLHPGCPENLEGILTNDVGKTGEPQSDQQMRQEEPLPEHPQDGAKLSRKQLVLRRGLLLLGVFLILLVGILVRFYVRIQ
Test: SLC transporter substrate assay, MDCKII-MATE1-Fin vs control MDCKII-CAT-Fin cells
Procedure: The described cells were plated onto standard 24-well tissue culture plates at densities of 5 × 10^5 cells/well. […] Before starting the experiment, the cells were prepared by removing the medium and washing the cells twice with 300 µL of assay buffer. […] The cells were lysed by adding 300 µL of 0.1N NaOH, they were incubated for 10 min at 37 °C and 100 µL samples were taken from all the wells.
The amount of protein in each well was quantified using the BCA kit for protein determination (Sigma-Aldrich, St Louis, MO, USA). Positive controls were performed using a separate 96-well plate format according to Table S8 in SI4.
SI4. Results of transporter substrate assays (SLC)
Table S8: Parameters of positive controls, control cell lines and plating for SLC transporters assays.
KH: Krebs-Henseleit buffer, HBSS: Hank's balanced salt solution, MES: 2 -(N-morpholino) ethanesulfonic acid, cGMP:
Guanosine cyclic phosphate, E3S: Estrone -3-sulfate, Gly-Sar: Glycylsarcosine, MPP+: 1-methyl-4-phenylpyridinium.
Calculation of fold accumulation values for SLC transporter substrate assays The fold accumulation value was defined as the ratio of uptake of the test substance (TS) or probe substrate into transfected and control cells. If the fold accumulation is > 2 and can be inhibited by a known inhibitor of the transporter, the test substance can be considered as a substrate of the respective transporter.
Fold accumulation = UPTTRP
• UPTTRP: accumulated amount of test substance (TS) or probe substrate in transfected cells normalized by protein content […]
• UPTCTRL: accumulated amount of test substance (TS) or probe substrate in control cells normalized by protein content […]
4.1 Multidrug and toxin extrusion protein MATE1
(MDCKII-MATE1-Fin) and control cells (MDCKII-CAT-Fin) applying 2- and 20-minute incubation periods, measured in SLC transporter substrate assay. […] Concentrations are nominal. […]
control cells (MDCKII-CAT-Fin) applying 2- and 20-minute incubation periods, measured in SLC transporter substrate […]
Compound Nominal In MATE1 Fold

Compound: [3H]C(c1ccc2ccccc2c1)C([3H])(NC(=O)C1CCC(CNC(=O)CN2CCN(CC(=O)[O-])CCN(CC(=O)[O-])CCN(CC(=O)[O-])CC2)CC1)C(=O)NCCCCC(NC(=O)NC(CCC(=O)O)C(=O)O)C(=O)O.[Lu+3] (stereo not drawn) [([α,β-^3H]Nal)Lu-PSMA-617]
- Accumulation in MATE1 transporter expressing cells (0.03 µM nominal, 2 min): 0.07 ± 0.01 pmol/mg protein
- Accumulation in control cells (0.03 µM nominal, 2 min): 0.12 ± 0.01 pmol/mg protein
- Accumulation, active transport (0.03 µM nominal, 2 min): -0.05 ± 0.02 pmol/mg protein
- Fold accumulation (0.03 µM nominal, 2 min): 0.60
- Accumulation in MATE1 transporter expressing cells (0.03 µM nominal, 20 min): 0.09 ± 0.00 pmol/mg protein
- Accumulation in control cells (0.03 µM nominal, 20 min): 0.19 ± 0.02 pmol/mg protein
- Accumulation, active transport (0.03 µM nominal, 20 min): -0.10 ± 0.02 pmol/mg protein
- Fold accumulation (0.03 µM nominal, 20 min): 0.49
- Accumulation in MATE1 transporter expressing cells (0.30 µM nominal, 2 min): 0.67 ± 0.05 pmol/mg protein
- Accumulation in control cells (0.30 µM nominal, 2 min): 0.82 ± 0.11 pmol/mg protein
- Accumulation, active transport (0.30 µM nominal, 2 min): -0.15 ± 0.12 pmol/mg protein
- Fold accumulation (0.30 µM nominal, 2 min): 0.81
- Accumulation in MATE1 transporter expressing cells (0.30 µM nominal, 20 min): 0.77 ± 0.12 pmol/mg protein
- Accumulation in control cells (0.30 µM nominal, 20 min): 1.02 ± 0.12 pmol/mg protein
- Accumulation, active transport (0.30 µM nominal, 20 min): -0.26 ± 0.17 pmol/mg protein
- Fold accumulation (0.30 µM nominal, 20 min): 0.75
- Substrate assessment (MATE1) (0.03, 0.30 µM, 2, 20 min): no in vitro substrate
- Max. transporter-specific fold accumulation, without inhibitor (2 min, 0.3 µM): 0.81
